Results from patent US20250101041A1, “POSITIVE ALLOSTERIC MODULATORS OF THE MUSCARINIC ACETYLCHOLINE RECEPTOR M4” (Vanderbilt University, priority 2022, published 2025).

Target: T1, human mAChR M4 (Homo sapiens, UniProt P08173)
T1 construct: expressed in transfected cells; host or cells: CHO-K1 (American Type Culture Collection), stably expressing hM4 and Gqi5
T1 sequence (P08173 1-479): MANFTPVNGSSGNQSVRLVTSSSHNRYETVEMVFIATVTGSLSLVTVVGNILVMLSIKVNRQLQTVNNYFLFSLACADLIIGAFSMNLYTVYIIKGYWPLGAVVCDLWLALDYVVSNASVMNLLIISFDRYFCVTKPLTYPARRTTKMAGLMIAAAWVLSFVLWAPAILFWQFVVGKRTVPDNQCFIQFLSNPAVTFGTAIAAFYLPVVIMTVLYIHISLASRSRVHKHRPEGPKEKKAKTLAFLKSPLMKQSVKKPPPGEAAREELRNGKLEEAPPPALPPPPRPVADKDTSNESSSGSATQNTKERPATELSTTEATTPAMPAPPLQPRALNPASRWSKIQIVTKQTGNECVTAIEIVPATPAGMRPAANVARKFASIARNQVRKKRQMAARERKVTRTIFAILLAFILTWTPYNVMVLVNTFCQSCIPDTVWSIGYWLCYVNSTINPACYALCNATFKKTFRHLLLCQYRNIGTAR
Test: mAChR M4 cell-based functional assay: calcium mobilization (Fluo-4, FDSS), potentiation of EC20 acetylcholine response in hM4-Gqi5 CHO-K1 cells
Design: Emax: dose or concentration left out as unconfirmed
Settings: for EC50: potentiation of EC20 acetylcholine response, calcium mobilization; for EC50 / Emax at 30 µM: human M4; for Emax at 30 µM: CHO-K1, % ACh maximum at 30 μM
Outline: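 Readout is the fluorescence-ratio rise at 1 Hz on FDSS, with PAM activity taken as concentration-dependent enhancement of the EC20 acetylcholine response, fitted four-parameter for EC50/Emax. hM4-Gqi5 CHO-K1 cells carried Fluo-4 AM dye; test compounds (11 points, 1:3) preceded EC20 acetylcholine additions at 144 s and 230 s.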

EC50 | Emax at 30 µM | SMILES | Emax (CHO-K1)
283 nM | 93% | [2H]C1([2H])Cc2ncc(-c3ccnn3C)cc2C([2H])([2H])N1c1nn2c(=O)ccnc2cc1C [Compound 1-449, 8-methyl-7-(3-(1-methyl-1H-pyrazol-5-yl)-7,8-dihydro-1,6-naphthyridin-6(5H)-yl-5,5,7,7-d4)-4H-pyrimido[1,2-b]pyridazin-4-one] | 
291 nM | 95% | [2H]C1([2H])Cc2ncc(-c3c(C)noc3C)cc2C([2H])([2H])N1c1nn2c(=O)ccnc2cc1C [Compound 1-450, 7-(3-(3,5-Dimethylisoxazol-4-yl)-7,8-dihydro-1,6-naphthyridin-6(5H)-yl-5,5,7,7-d4)-8-methyl-4H-pyrimido[1,2-b]pyridazin-4-one] | 
21 nM | 97% | Cc1cc2nccc(=O)n2nc1N1CCc2ncc(N3CCCn4nccc43)cc2C1 [Compound 2-1, 7-(3-(6,7-dihydropyrazolo[1,5-a]pyrimidin-4(5H)-yl)-7,8-dihydro-1,6-naphthyridin-6(5H)-yl)-8-methyl-4H-pyrimido[1,2-b]pyridazin-4-one] | 
363 nM | 87% | Cc1cc2nccc(=O)n2nc1N1CCc2ncc(N3CCO[C@H](C)C3)cc2C1 [Compound 2-2, (R)-8-methyl-7-(3-(2-methylmorpholino)-7,8-dihydro-1,6-naphthyridin-6(5H)-yl)-4H-pyrimido[1,2-b]pyridazin-4-one] | 
173 nM | 71% | Cc1cc(N2CCc3ncc(N4CCCn5nccc54)cc3C2)nn2c(=O)ccnc12 [Compound 2-3, 7-(3-(6,7-dihydropyrazolo[1,5-a]pyrimidin-4(5H)-yl)-7,8-dihydro-1,6-naphthyridin-6(5H)-yl)-9-methyl-4H-pyrimido[1,2-b]pyridazin-4-one] | 
30 nM | 115% | Cc1cc2ncc(Cl)c(=O)n2nc1N1CCc2ncc(N3CCCn4nccc43)cc2C1 [Compound 2-4, 3-chloro-7-(3-(6,7-dihydropyrazolo[1,5-a]pyrimidin-4(5H)-yl)-7,8-dihydro-1,6-naphthyridin-6(5H)-yl)-8-methyl-4H-pyrimido[1,2-b]pyridazin-4-one] | 
60 nM | 97% | Cc1cc2n(n1)CCCN2c1cnc2c(c1)CN(c1nn3c(=O)ccnc3cc1C)CC2 [Compound 2-5, 8-methyl-7-(3-(2-methyl-6,7-dihydropyrazolo[1,5-a]pyrimidin-4(5H)-yl)-7,8-dihydro-1,6-naphthyridin-6(5H)-yl)-4H-pyrimido[1,2-b]pyridazin-4-one] | 
1170 nM | 65% | Cc1cc2nccc(=O)n2nc1N1CCc2ncc(-n3cccn3)cc2C1 [Compound 2-6, 7-(3-(1H-pyrazol-1-yl)-7,8-dihydro-1,6-naphthyridin-6(5H)-yl)-8-methyl-4H-pyrimido[1,2-b]pyridazin-4-one] | 
24 nM | 84% | Cc1cc2nccc(=O)n2nc1N1CCc2ncc(N3CCOc4ncccc43)cc2C1 [Compound 2-7, 7-(3-(2,3-dihydro-1H-pyrido[2,3-b][1,4]oxazin-1-yl)-7,8-dihydro-1,6-naphthyridin-6(5H)-yl)-8-methyl-4H-pyrimido[1,2-b]pyridazin-4-one] | 
384 nM | 84% | Cc1cc2nccc(=O)n2nc1N1CCc2ncc(Nc3ccnn3C)cc2C1 [Compound 2-8, 8-methyl-7-(3-((1-methyl-1H-pyrazol-5-yl)amino)-7,8-dihydro-1,6-naphthyridin-6(5H)-yl)-4H-pyrimido[1,2-b]pyridazin-4-one] | 
17 nM | 84% | Cc1cc2nc(C)c(F)c(=O)n2nc1N1CCc2ncc(N3CCCn4nccc43)cc2C1 [Compound 2-9, 7-(3-(6,7-dihydropyrazolo[1,5-a]pyrimidin-4(5H)-yl)-7,8-dihydro-1,6-naphthyridin-6(5H)-yl)-3-fluoro-2,8-dimethyl-4H-pyrimido[1,2-b]pyridazin-4-one] | 
70 nM | 94% | Cc1cc(=O)n2nc(N3CCc4ncc(N5CCCn6nccc65)cc4C3)c(C)cc2n1 [Compound 2-10, 7-(3-(6,7-dihydropyrazolo[1,5-a]pyrimidin-4(5H)-yl)-7,8-dihydro-1,6-naphthyridin-6(5H)-yl)-2,8-dimethyl-4H-pyrimido[1,2-b]pyridazin-4-one] | 
19 nM | 115% | Cc1cc2nc(C(F)(F)F)cc(=O)n2nc1N1CCc2ncc(N3CCCn4nccc43)cc2C1 [Compound 2-11, 7-(3-(6,7-dihydropyrazolo[1,5-a]pyrimidin-4(5H)-yl)-7,8-dihydro-1,6-naphthyridin-6(5H)-yl)-8-methyl-2-(trifluoromethyl)-4H-pyrimido[1,2-b]pyridazin-4-one] | 
39 nM | 128% | Cc1nc2c(C)c(C)c(N3CCc4ncc(N5CCCn6nccc65)cc4C3)nn2c(=O)c1F [Compound 2-12, 7-(3-(6,7-dihydropyrazolo[1,5-a]pyrimidin-4(5H)-yl)-7,8-dihydro-1,6-naphthyridin-6(5H)-yl)-3-fluoro-2,8,9-trimethyl-4H-pyrimido[1,2-b]pyridazin-4-one] | 
27 nM | 82% | Cc1cc2nc(C)c(C)c(=O)n2nc1N1CCc2ncc(N3CCCn4nccc43)cc2C1 [Compound 2-13, 7-(3-(6,7-dihydropyrazolo[1,5-a]pyrimidin-4(5H)-yl)-7,8-dihydro-1,6-naphthyridin-6(5H)-yl)-2,3,8-trimethyl-4H-pyrimido[1,2-b]pyridazin-4-one] | 
22 nM | 88% | Cc1cc2nc(C(F)F)cc(=O)n2nc1N1CCc2ncc(N3CCCn4nccc43)cc2C1 [Compound 2-14, 2-(difluoromethyl)-7-(3-(6,7-dihydropyrazolo[1,5-a]pyrimidin-4(5H)-yl)-7,8-dihydro-1,6-naphthyridin-6(5H)-yl)-8-methyl-4H-pyrimido[1,2-b]pyridazin-4-one] | 
7 nM | 85% | Cc1cc2nc(C3CC3)cc(=O)n2nc1N1CCc2ncc(N3CCCn4nccc43)cc2C1 [Compound 2-15, 2-cyclopropyl-7-(3-(6,7-dihydropyrazolo[1,5-a]pyrimidin-4(5H)-yl)-7,8-dihydro-1,6-naphthyridin-6(5H)-yl)-8-methyl-4H-pyrimido[1,2-b]pyridazin-4-one] | 
12 nM | 88% | Cc1cc2nc(C)c(Cl)c(=O)n2nc1N1CCc2ncc(N3CCCn4nccc43)cc2C1 [Compound 2-16, 3-chloro-7-(3-(6,7-dihydropyrazolo[1,5-a]pyrimidin-4(5H)-yl)-7,8-dihydro-1,6-naphthyridin-6(5H)-yl)-2,8-dimethyl-4H-pyrimido[1,2-b]pyridazin-4-one] | 
9 nM | 98% | Cc1cc(=O)n2nc(N3CCc4ncc(N5CCOc6ncccc65)cc4C3)c(C)cc2n1 [Compound 2-17, 7-(3-(2,3-dihydro-1H-pyrido[2,3-b][1,4]oxazin-1-yl)-7,8-dihydro-1,6-naphthyridin-6(5H)-yl)-2,8-dimethyl-4H-pyrimido[1,2-b]pyridazin-4-one] | 
80 nM | 92% | Cc1cc(=O)n2nc(N3CCc4ncc(N5CCO[C@H](C)C5)cc4C3)c(C)cc2n1 [Compound 2-18, (R)-2,8-dimethyl-7-(3-(2-methylmorpholino)-7,8-dihydro-1,6-naphthyridin-6(5H)-yl)-4H-pyrimido[1,2-b]pyridazin-4-one] | 
60 nM | 79% | Cc1cc(=O)n2nc(N3CCc4ncc(Nc5cccnc5F)cc4C3)c(C)cc2n1 [Compound 2-19, 7-(3-((2-fluoropyridin-3-yl)amino)-7,8-dihydro-1,6-naphthyridin-6(5H)-yl)-2,8-dimethyl-4H-pyrimido[1,2-b]pyridazin-4-one] | 
166 nM | 88% | Cc1cc(=O)n2nc(N3CCc4ncc(Nc5ccnn5C)cc4C3)c(C)cc2n1 [Compound 2-20, 2,8-dimethyl-7-(3-((1-methyl-1H-pyrazol-5-yl)amino)-7,8-dihydro-1,6-naphthyridin-6(5H)-yl)-4H-pyrimido[1,2-b]pyridazin-4-one] | 
37 nM | 87% | Cc1cc(=O)n2nc(N3CCc4ncc(N5CCCn6nc(C)cc65)cc4C3)c(C)cc2n1 [Compound 2-21, 2,8-dimethyl-7-(3-(2-methyl-6,7-dihydropyrazolo[1,5-a]pyrimidin-4(5H)-yl)-7,8-dihydro-1,6-naphthyridin-6(5H)-yl)-4H-pyrimido[1,2-b]pyridazin-4-one] | 
97 nM | 56% | Cc1cc(=O)n2nc(N3CCc4ncc(-n5cccn5)cc4C3)c(C)cc2n1 [Compound 2-22, 7-(3-(1H-pyrazol-1-yl)-7,8-dihydro-1,6-naphthyridin-6(5H)-yl)-2,8-dimethyl-4H-pyrimido[1,2-b]pyridazin-4-one] | 

SMILES | EC50 | Emax at 30 µM | Emax (CHO-K1)
Cc1ccc2c(n1)CCN(c1nn3c(=O)ccnc3cc1C)C2 [Compound 1-448, 8-methyl-7-(2-methyl-7,8-dihydro-1,6-naphthyridin-6(5H)-yl)-4H-pyrimido[1,2-b] pyridazin-4-one] | 2300 nM |  | 66%
